Results on 26 molecules are retold here after US20170121315A1, “HETEROBICYCLICALLY SUBSTITUTED 4-OXOBUTANE ACID DERIVATIVES AND USE THEREOF” (priority 2014, published 2017).

Structures are written as SMILES.

T1 sequence (P39900 106-470): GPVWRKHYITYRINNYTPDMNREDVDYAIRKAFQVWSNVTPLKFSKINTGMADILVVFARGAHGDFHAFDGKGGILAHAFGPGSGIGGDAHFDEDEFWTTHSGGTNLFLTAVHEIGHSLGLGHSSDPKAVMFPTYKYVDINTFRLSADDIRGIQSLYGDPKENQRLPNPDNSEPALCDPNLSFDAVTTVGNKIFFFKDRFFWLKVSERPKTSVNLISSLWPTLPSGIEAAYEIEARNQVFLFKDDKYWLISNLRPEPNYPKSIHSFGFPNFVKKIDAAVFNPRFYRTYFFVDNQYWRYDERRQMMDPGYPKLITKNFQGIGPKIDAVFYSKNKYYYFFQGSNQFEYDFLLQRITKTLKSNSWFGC

This assay addresses T1, human macrophage elastase (HME/hMMP-12) (Homo sapiens, UniProt P39900).
T1 construct: purchased R&D Systems 917-MP
Briefly: In vitro HME inhibition test (standard or high-sensitivity). The format is biochemical. The note with it: in some cases mean values, rounded to two significant figures. Here is the method: The potency of the compounds according to the invention with respect to HME (MMP-12) is determined in an in vitro inhibition test. The HME-mediated amidolytic cleavage of a suitable peptide substrate leads to an increase in fluorescent light therein. The signal intensity of the fluorescent light is directly proportional to the enzyme activity. The active concentration of a test compound at which half the enzyme is inhibited (50% signal intensity of the fluorescent light) is reported as the IC50 value.
In a 384 hole microtiter plate, in a total test volume of 41 μl, the test buffer (0.1 M HEPES pH 7.4, 0.15 M NaCl, 0.03 M CaCl2, 0.004 mM ZnCl2, 0.02 M EDTA, 0.005% Brij®), the enzyme (0.5 nM HME; R&D Systems, 917-MP, autocatalytic activation according to the manufacturer's instructions) and the intramolecularly quenched substrate [5 μM Mca-Pro-Leu-Gly-Leu-Glu-Glu-Ala-Dap(Dnp)-NH2; Bachem, M-2670] are incubated in the absence and presence of the test substance (as a solution in DMSO) at 37° C. for two hours. The fluorescence intensity of the test mixtures is measured (excitation […], emission 393 nm). The IC50 values are ascertained by plotting the fluorescent light intensity against the active ingredient concentration.
In this case, an enzyme concentration ten times lower is used (final concentration, e.g. 0.05 nM) in order to achieve an increased test sensitivity. The incubation period chosen for the test is correspondingly longer (e.g. 16 hours).
Consider `O=C(CC(CCn1nnc2ccccc2c1=O)C(=O)O)c1cc2cc(OCCCc3ccc(C(F)(F)F)cc3)ccc2o1` (racemic) [Example 42, (+/−)-4-Oxo-2-[2-(4-oxo-1,2,3-benzotriazin-3(4H)-yl)ethyl]-4-(5-{3-[4-(trifluoromethyl)phenyl]propoxy}-1-benzofur-2-yl)butanoic acid], for which the IC50 (as a rule, the point on the concentration scale where inhibition reaches its midpoint) amounted to 3.2 nM.
With `CCCOc1ccc2c(C(=O)CC(CCn3nnc4ccccc4c3=O)C(=O)O)coc2c1` (single isomer, unassigned; (-)) [Example 87, (−)-4-Oxo-2-[2-(4-oxo-1,2,3-benzotriazin-3(4H)-yl)ethyl]-4-(6-propoxy-1-benzofur-3-yl)butanoic acid] the figure was 470 nM; with `O=C(CC(CCn1nnc2ccccc2c1=O)C(=O)O)c1cc2cc(OCC3(F)CCOCC3)ccc2o1` (racemic) [Example 14, (+/−)-4-{5-[(4-Fluorotetrahydro-2H-pyran-4-yl)methoxy]-1-benzofur-2-yl}-4-oxo-2-[2-(4-oxo-1,2,3-benzotriazin-3(4H)-yl)ethyl]butanoic acid], 0.65 nM.
Then `O=C(CC(CCn1nnc2ccccc2c1=O)C(=O)O)c1cc2cc(OCC3CCCCC3)ccc2o1` (single isomer, unassigned; enantiomer 1) [Example 9, (−)-4-[5-(Cyclohexylmethoxy)-1-benzofur-2-yl]-4-oxo-2-[2-(4-oxo-1,2,3-benzotriazin-3(4H)-yl)ethyl]butanoic acid (enantiomer 1)], with 370 nM; and `O=C(CC(CCn1nnc2ccccc2c1=O)C(=O)O)c1cc2cc(OCC3CCCCC3)ccc2o1` (single isomer, unassigned; enantiomer 2) [Example 10, (+)-4-[5-(Cyclohexylmethoxy)-1-benzofur-2-yl]-4-oxo-2-[2-(4-oxo-1,2,3-benzotriazin-3(4H)-yl)ethyl]butanoic acid (enantiomer 2)], with 0.62 nM.
`O=C(CC(CCn1nnc2ccccc2c1=O)C(=O)O)c1cc2cc(OCCCc3cccs3)ccc2o1` (racemic) [Example 46, (+/−)-4-Oxo-2-[2-(4-oxo-1,2,3-benzotriazin-3(4H)-yl)ethyl]-4-{5-[3-(2-thienyl)propoxy]-1-benzofur-2-yl}butanoic acid] registered a half-maximal inhibitory concentration (IC50) of 1.9 nM.
With `O=C(CC(CCn1nnc2ccccc2c1=O)C(=O)O)c1noc2cc(OCc3ccc(F)cc3)ccc12` (single isomer, unassigned; enantiomer 1) [Example 137, 4-{6-[(4-Fluorobenzyl)oxy]-1,2-benzoxazol-3-yl}-4-oxo-2-[2-(4-oxo-1,2,3-benzotriazin-3(4H)-yl)ethyl]butanoic acid (enantiomer 1)] the figure was 35 nM; with `CCCCOc1ccc2cc(C(=O)CC(CCn3nnc4ccccc4c3=O)C(=O)O)oc2c1` (racemic) [Example 61, (+/−)-4-(6-Butoxy-1-benzofur-2-yl)-4-oxo-2-[2-(4-oxo-1,2,3-benzotriazin-3(4H)-yl)ethyl]butanoic acid], 4.6 nM; with `O=C(CC(CCn1nnc2ccccc2c1=O)C(=O)O)c1cc2cc(OCc3ccc(Cl)c(Cl)c3)ccc2o1` (racemic) [Example 25, (+/−)-4-{5-[(3,4-Dichlorobenzyl)oxy]-1-benzofur-2-yl}-4-oxo-2-[2-(4-oxo-1,2,3-benzotriazin-3(4H)-yl)ethyl]butanoic acid], 0.2 nM.
For the molecule `O=C(CC(CCn1nnc2ccccc2c1=O)C(=O)O)c1cc2ccc(OCc3ccc(F)cc3)cc2s1` (racemic) [Example 125, (+/−)-4-{6-[(4-Fluorobenzyl)oxy]-1-benzothiophen-2-yl}-4-oxo-2-[2-(4-oxo-1,2,3-benzotriazin-3(4H)-yl)ethyl]butanoic acid], the midpoint of inhibition, the IC50, lay at 4 nM.
As to `O=C(CC(CCn1nnc2ccccc2c1=O)C(=O)O)c1cc2cc(OCCc3ccccc3)ccc2o1` (racemic) [Example 19, (+/−)-4-Oxo-2-[2-(4-oxo-1,2,3-benzotriazin-3(4H)-yl)ethyl]-4-[5-(2-phenylethoxy)-1-benzofur-2-yl]butanoic acid], the midpoint of inhibition, the IC50, lay at 4.7 nM.
In turn, `CCCCCCCOc1ccc2cc(C(=O)CC(CCn3nnc4ccccc4c3=O)C(=O)O)oc2c1` (racemic) [Example 67, (+/−)-4-[6-(Heptyloxy)-1-benzofur-2-yl]-4-oxo-2-[2-(4-oxo-1,2,3-benzotriazin-3(4H)-yl)ethyl]butanoic acid] returned a concentration for half-maximal inhibition (IC50) of 3.8 nM.
For `O=C(CC(CCn1nnc2ccccc2c1=O)C(=O)O)c1cc2cc(OCc3ccccc3F)ccc2o1` (racemic) [Example 45, (+/−)-4-{5-[(2-Fluorobenzyl)oxy]-1-benzofur-2-yl}-4-oxo-2-[2-(4-oxo-1,2,3-benzotriazin-3(4H)-yl)ethyl]butanoic acid], the half-maximal inhibitory concentration (IC50) came to 2.3 nM.
As to `NC(=O)c1cccc(COc2ccc3oc(C(=O)CC(CCn4nnc5ccccc5c4=O)C(=O)O)cc3c2)c1` (single isomer, unassigned; (-)) [Example 33, (−)-4-{5-[(3-Carbamoylbenzyl)oxy]-1-benzofur-2-yl}-4-oxo-2-[2-(4-oxo-1,2,3-benzotriazin-3(4H)-yl)ethyl]butanoic acid], the IC50 worked out at 350 nM.
The molecule `O=C(CC(CCn1nnc2ccccc2c1=O)C(=O)O)c1coc2cc(OCC3CCCC3)ccc12` (single isomer, unassigned; (-)) [Example 79, (−)-4-[6-(Cyclopentylmethoxy)-1-benzofur-3-yl]-4-oxo-2-[2-(4-oxo-1,2,3-benzotriazin-3(4H)-yl)ethyl]butanoic acid] had an IC50 of 1900 nM.
With `O=C(CC(CCn1nnc2ccccc2c1=O)C(=O)O)c1noc2cc(OCc3cccc(Cl)c3)ccc12` (racemic) [Example 146, (+/−)-4-{6-[(3-Chlorobenzyl)oxy]-1,2-benzoxazol-3-yl}-4-oxo-2-[2-(4-oxo-1,2,3-benzotriazin-3(4H)-yl)ethyl]butanoic acid] the figure was 1.1 nM; with `CCCCOc1ccc2c(C(=O)CC(CCn3nnc4ccccc4c3=O)C(=O)O)coc2c1` (single isomer, unassigned; (+)) [Example 108, (+)-4-(6-Butoxy-1-benzofur-3-yl)-4-oxo-2-[2-(4-oxo-1,2,3-benzotriazin-3(4H)-yl)ethyl]butanoic acid], 0.23 nM; with `CCCCCCOc1ccc2c(C(=O)CC(CCn3nnc4ccccc4c3=O)C(=O)O)coc2c1` (single isomer, unassigned; (-)) [Example 99, (−)-4-[6-(Hexyloxy)-1-benzofur-3-yl]-4-oxo-2-[2-(4-oxo-1,2,3-benzotriazin-3(4H)-yl)ethyl]butanoic acid], 100 nM.
`CCCCCCCOc1ccc2cc(C(=O)CC(CCn3nnc4ccccc4c3=O)C(=O)O)oc2c1` (single isomer, unassigned; (-)) [Example 68, (−)-4-[6-(Heptyloxy)-1-benzofur-2-yl]-4-oxo-2-[2-(4-oxo-1,2,3-benzotriazin-3(4H)-yl)ethyl]butanoic acid]: the IC50 stood at 890 nM.
With `COc1ccc2cc(C(=O)CC(CCn3nnc4ccc(C(F)(F)F)cc4c3=O)C(=O)O)sc2c1` (racemic) [Example 131, (+/−)-4-(6-Methoxy-1-benzothiophen-2-yl)-4-oxo-2-{2-[4-oxo-6-(trifluoromethyl)-1,2,3-benzotriazin-3(4H)-yl]ethyl}butanoic acid] the figure was 1.2 nM; with `CCCCCCOc1ccc2cc(C(=O)CC(CCn3nnc4ccccc4c3=O)C(=O)O)oc2c1` (racemic) [Example 64, (+/−)-4-[6-(Hexyloxy)-1-benzofur-2-yl]-4-oxo-2-[2-(4-oxo-1,2,3-benzotriazin-3(4H)-yl)ethyl]butanoic acid], 2.9 nM; with `O=C(CC(CCn1nnc2ccccc2c1=O)C(=O)O)c1coc2cc(OCCC3CCCCC3)ccc12` (racemic) [Example 76, (+/−)-4-[6-(2-Cyclohexylethoxy)-1-benzofur-3-yl]-4-oxo-2-[2-(4-oxo-1,2,3-benzotriazin-3(4H)-yl)ethyl]butanoic acid], 0.66 nM.
Then `O=C(CC(CCn1nnc2ccccc2c1=O)C(=O)O)c1cc2ccc(OCC3CCO3)cc2s1` (racemic) [Example 119, (+/−)-4-{6-[Oxetan-2-ylmethoxy]-1-benzothiophen-2-yl}-4-oxo-2-[2-(4-oxo-1-benzotriazin-3(4H)-yl)ethyl]butanoic acid], with 3.7 nM.
Then `CCCOc1ccc2cc(C(=O)CC(CCn3nnc4ccccc4c3=O)C(=O)O)oc2c1` (single isomer, unassigned) [Example 60, 4-Oxo-2-[2-(4-oxo-1,2,3-benzotriazin-3(4H)-yl)ethyl]-4-(6-propoxy-1-benzofur-2-yl)butanoic acid], with 1.8 nM; and `N#CCCCOc1ccc2oc(C(=O)CC(CCn3nnc4ccccc4c3=O)C(=O)O)cc2c1` (racemic) [Example 15, (+/−)-4-[5-(3-Cyanopropoxy)-1-benzofur-2-yl]-4-oxo-2-[2-(4-oxo-1,2,3-benzotriazin-3(4H)-yl)ethyl]butanoic acid], with 4.8 nM; and `CCCCOc1ccc2c(C(=O)CC(CCn3nnc4ccccc4c3=O)C(=O)O)coc2c1` (single isomer, unassigned; (-)) [Example 109, (−)-4-(6-Butoxy-1-benzofur-3-yl)-4-oxo-2-[2-(4-oxo-1,2,3-benzotriazin-3(4H)-yl)ethyl]butanoic acid], with 10 nM.
